Data taken from patent US12102646B2, “Compositions for the treatment of fibrosis and inflammation” (Viking Therapeutics, Inc., priority 2018, dated 2024).

Tests used:
Assay type in all cases: in vivo
DIO-NASH mice = assay: DIO-NASH mice, 8 weeks oral once-daily treatment, liver fibrosis read-outs (Example 1); conditions: for proportion of animals with reduction in fibrosis score post-treatment: compared with mock treated animals; for liver Picro-Sirius Red (PSR) staining (collagen 1 and 3): terminal liver sections, morphometry, Compound 1 vs mock, Compound 2 vs control- or mock-treated
Description: DIO-NASH mice were acclimatized for 3 weeks, with pre-treatment liver biopsy samples collected prior to acclimatization. Mice were randomly assigned to one of five dosing groups, with 12 mice per group. Assigned dosages were: Compound 2 (low): 3 mg/kg; Compound 2 (high): 10 mg/kg; Compound 1: 10 mg/kg; and Elafibranor (30 mg/kg). One group was mock treated with vehicle only as a control. Dosage forms were administered orally once per day. After 8 weeks, animals were sacrificed and liver samples were taken. Liver samples were assayed for total liver hydroxyproline, and subjected to immunohistochemical observation for fibrosis stage as well as the extent of ColaI (Collagen Type Ia) staining. […] Since hydroxyproline is a significant component of collagen, and collagen is the most significant source of hydroxyproline in animal tissues, levels of hydroxyproline provide a reliable proxy for the presence of collagen in a sample.
Terminal liver biopsy samples were also subjected to histochemical staining and immunohistochemical staining. Representative images of liver stained with Picro-Sirius Red (to visualize collagen I and III deposition, red stain) at the end of the treatment period following 8 weeks of treatment with vehicle, low dose Compound 2, high dose Compound 2, Compound 1, or elafibranor are shown in FIG. 2. […] Representative images of liver stained with anti-type I collagen (col1a1) (Southern Biotech, Cat. 131001) at the end of the treatment period following 8 weeks of treatment with vehicle, low dose Compound 2, high dose Compound 2, Compound 1, or elafibranor are shown in FIG. 3. The extent of Col1A1 content was calculated as the total liver Col1A1 staining in terminal liver biopsy samples.
Fibrosis scores were also calculated based on observation of terminal liver biopsy samples.

[1] = tested on: diet-induced NASH mouse model; assay: diet-induced NASH mouse model, 8 weeks dosing, liver/plasma biochemistry and histology (Example 6); conditions: for total liver galectin-3: compared to vehicle, 8 weeks dosing, FIG. 9
Description: (§1) Compound 2 was evaluated in a diet-induced NASH mouse model (See, e.g., Hansen, H. et al., Drug Discovery Today 22(17):1701-1718 (2017) which is hereby incorporated by reference with respect to its disclosure of diet-induced, genetic, chemical, and other NASH mouse models). […] Animals were biopsied pre-study, and only animals with NASH and fibrosis were selected for study. Selected animals were acclimatized and randomized, with experimental groups of 11-12 animals per cohort receiving oral dosing of compound 2 according to the following schedules: Daily dosing for 8 weeks; or daily dosing for week 0-1 followed by weekly dosing for weeks 2-8. At week 8, animals were sacrificed and tissues analyzed. Plasma enzymes (P-ALT (alanine aminotransferase) and P-AST (aspartate aminotransferase)), total plasma triglycerides, and total plasma cholesterol were measured, and terminal necropsy of each liver was carried out, assaying total liver biochemistry including total liver triglycerides, and total liver cholesterol, as well as histological evaluation of NAFLD activity score (done pre- and post-treatment), fibrosis stage (also done pre- and post-treatment), steatosis, Col1a1 level, and galactin-3 level. Tissue samples were preserved for characterization using RNAseq; RNAseq was used to determine expression levels for genes showing differential expression in compound 2-treated vs. vehicle treated animals and/or genes known to be implicated in fibrosis. Additionally, expression levels for genes known to be implicated in inflammation, such as ANXA2, were determined in compound 2-treated vs. vehicle treated animals.

[2] = tested on: pro-fibrotic and pro-inflammatory genes (Col1a1, Col3a1, ACTA2, LGALS1, ENPP2, ANXA2); assay: RNAseq liver gene expression in diet-induced NASH mouse model (Example 6); parameters: concentration or dose not given beside the values
Description: as §1

[3] = tested on: Phosphorylase kinase deficient mice (PhKc-/-); assay: GSD-8/9-like PhKc-/- mice (Example 5); conditions: liver samples; relative to levels prior to administration; 6-10 weeks
Description: (§2) Phosphorylase kinase deficient mice that manifest GSD-8/9-like hepatic symptoms, including hypercholesterolemia and hyperlipidemia (PhKc−/−, see, e.g., Varsanyi, M. et al., Biochem. Genet. 18(3-4):247-61 (1980)), are treated with test articles comprising any one of Compounds 1-4, or any other compound disclosed herein, administered to each subject as appropriate for its formulation, daily or as appropriate, for 6-10 weeks. Liver biopsies are taken prior to the first administration of the test articles and again after sacrifice following the last administration of the test articles. Biopsy samples are analyzed as described in Example I. Liver samples from animals treated with the compounds disclosed herein, especially those animals treated with Compound 2, show reduced levels of hydroxyproline, decreased Collagen I staining, and decreased fibrosis score relative to the levels shown prior to the administration of the test articles. Mock treated animals show little or no reduction in fibrosis, hydroxyproline content, or Collagen I content.

[4] = tested on: Sprague-Dawley Rats or C57BL mice with hypertrophic skin lesions; assay: hypertrophic skin lesions in rats or mice (Example 3); conditions: injection site skin samples; relative to levels prior to administration; 6-10 weeks
Text: Hypertrophic skin lesions are induced in Sprague-Dawley Rats by subcutaneous injection of capsaicin as described in Wallengren, J. et al., Skin Pharm. Appl. Skin Physiol. 15(3):154-165(2002), which is hereby incorporated by reference with respect to its description of the induction of hypertrophic skin lesions in rats; or in C57BL or other appropriate strain mice by subcutaneous administration of CCl4 and/or bleomycin, as described in Alonso-Merino et al., Proc. Nat. Acad. Sci. 113(24):E3451-60 (2016), which is incorporated herein for its disclosure of the induction of fibrotic skin lesions in mice. After the establishment of hypertrophic skin lesions in the capsaicin, CCl4 and/or bleomycin treated animals, test articles comprising any one of Compounds 1-4, or any other compound disclosed herein, are administered to each subject animal as appropriate for its formulation, daily or as appropriate, for 6-10 weeks. Skin biopsies from the injection site are taken prior to the first administration of the test articles and again after sacrifice following the last administration of the test articles. Biopsy samples are analyzed as described in Example I, with the addition of immunohistochemical staining for type III collagen. Injection site skin samples from animals treated with the compounds disclosed herein, especially those animals treated with Compound 2, show reduced levels of hydroxyproline, decreased Collagen III staining, and decreased fibrosis score relative to the levels shown prior to the administration of the test articles. Mock treated animals show little or no reduction in fibrosis, hydroxyproline content, or Collagen III content.

[5] = tested on: Dunkin-Hartley guinea pigs with pulmonary fibrosis; assay: bleomycin-induced pulmonary fibrosis in guinea pigs (Example 2); conditions: lungs; relative to levels prior to administration; 6-10 weeks
Description: Pulmonary fibrosis is induced in healthy male Dunkin-Hartley guinea pigs by administering bleomycin intratracheally. Control subjects are developed by intratracheal administration of saline solution. After the establishment of pulmonary fibrosis in the bleomycin treated animals, test articles comprising any one of Compounds 1-4, or any other compound disclosed herein, are administered to each subject as appropriate for its formulation, daily or as appropriate, for 6-10 weeks. Unilateral lung biopsies are taken prior to the first administration of the test articles and again after sacrifice following the last administration of the test articles. Biopsy samples are analyzed as described in Example I, with the addition of immunohistochemical staining for type III collagen. Lungs from animals treated with the compounds disclosed herein, especially those animals treated with Compound 2, show reduced levels of hydroxyproline, decreased Collagen III staining, and decreased fibrosis score relative to the levels shown prior to the administration of the test articles. Mock treated animals show little or no reduction in fibrosis, hydroxyproline content, or Collagen III content.

[6] = tested on: Agl-/- mice that manifest GSD-3-like hepatic symptoms; assay: GSD-3-like Agl-/- mice (Example 4); conditions: liver samples; relative to levels prior to administration; 6-10 weeks
Description: as §2, with “Glucose-6-phosphatase-α” for “Phosphorylase kinase”, “GSD-3-like” for “GSD-8/9-like”, “(Agl−/−, see e.g. Liu, K.” for “(PhKc−/−, see, e.g., Varsanyi,”, “Mol.” for “Biochem.”, “Metabol. 111(4):467-76 (2014))” for “18(3-4):247-61 (1980)),”

[7] = tested on: nude mice with palmar fascia fibrosis; assay: palmar fascia fibrosis in nude mice (second Example 2); conditions: relative to levels prior to administration, 6-10 weeks
Text: Palmar fascia fibrosis is induced in nude mice by introducing fibroblasts from fibrotic cords of Dupuytren's disease patients as described in Stish, L. et al., BMC Musculoskelet. Disord. 16: 138-148 (2015) which is hereby incorporated by reference with respect to its description of the establishment of an animal model system for the study of palmar fascia fibrosis. After the establishment of palmar fascia fibrosis in the fibroblast treated animals, test articles comprising any one of Compounds 1-4, or any other compound disclosed herein, are administered to each subject as appropriate for its formulation, daily or as appropriate, for 6-10 weeks. Unilateral forepaw biopsies are taken prior to the first administration of the test articles and again after sacrifice following the last administration of the test articles. Biopsy samples are analyzed as described in Example I, with the addition of immunohistochemical staining for type III collagen. Palmar fascia from animals treated with the compounds disclosed herein, especially those animals treated with Compound 2, show reduced levels of hydroxyproline, decreased Collagen III staining, and decreased fibrosis score relative to the levels shown prior to the administration of the test articles. Mock treated animals show little or no reduction in fibrosis, hydroxyproline content, or Collagen III content.

[8] = relative to pre-treatment samples, 8 weeks, FIG. 7
[9] = treatment groups relative to untreated controls, week 8, oral
[10] = post-treatment liver, 8 weeks, FIG. 8

Cc1cc(OCP(=O)(OCOC(=O)C(C)(C)C)OCOC(=O)C(C)(C)C)cc(C)c1Cc1ccc(O)c(Cc2ccccc2)c1 [Compound 1]
proportion of animals with reduction in fibrosis score post-treatment (DIO-NASH mice; 8 weeks): higher
liver Picro-Sirius Red (PSR) staining (collagen 1 and 3) (DIO-NASH mice; 8 weeks oral once per day): lower
total liver galectin-3 [1]: reduction
ACTA2 Change versus Vehicle Control ([2]; 8-week dosing, fibrosis marker): −30.5%
ENPP2 Change versus Vehicle Control ([2]; 8-week dosing, fibrosis marker): −44.1%
LGALS1 Change versus Vehicle Control ([2]; 8-week dosing, fibrosis marker): −35.1%

Cc1cc(OCP2(=O)OCC[C@@H](c3cccc(Cl)c3)O2)cc(C)c1Cc1ccc(O)c(C(C)C)c1 (stereo partly shown) [Compound 2]
Collagen I staining [3]: decreased
fibrosis score [3]: decreased
levels of hydroxyproline [3]: reduced
animals showing increases in fibrosis score post-treatment (DIO-NASH mice; 8 weeks): No
proportion of animals with reduction in fibrosis score post-treatment (DIO-NASH mice; 8 weeks): higher
total liver Col1A1 content (DIO-NASH mice; terminal liver biopsy, anti-type I collagen staining, vs control-treated or mock-treated animals, 8 weeks): lower
liver Picro-Sirius Red (PSR) staining (collagen 1 and 3) (DIO-NASH mice; 8 weeks oral once per day): lower
total liver hydroxyproline levels (DIO-NASH mice; vs control-treated (elafibranor) or mock-treated animals, 8 weeks oral once per day, Compound 2 3 and 10 mg/kg): lower
toxicity ([1]; 8 weeks oral dosing): No significant toxicity
total liver galectin-3 [1]: reduction
reduction in fibrosis (fibrosis score) [1, 8]: 50.2%
reduction in hydroxyproline [1, 8]: 46.3%
reduction in type 1 collagen deposition [1, 8]: 60.2%
liver cholesterol [1, 9]: Significant reductions
liver triglycerides [1, 9]: Significant reductions
NAS scores ([1]; week 8, oral): significant improvements
total lipid content in the liver, reduction ([1]; week 8, oral, FIG. 6): approximately 80%
Collagen III staining [4]: decreased
fibrosis score [4]: decreased
levels of hydroxyproline [4]: reduced
Collagen III staining [5]: decreased
fibrosis score [5]: decreased
levels of hydroxyproline [5]: reduced
Collagen I staining [6]: decreased
fibrosis score [6]: decreased
levels of hydroxyproline [6]: reduced
Collagen III staining [7]: decreased
fibrosis score [7]: decreased
levels of hydroxyproline [7]: reduced
ACTA2 Change versus Vehicle Control ([2]; 8-week dosing, fibrosis marker): −37.0%
Col1a1 Change versus Vehicle Control ([2]; 8-week dosing, fibrosis marker): −36.3%
Col3a1 Change versus Vehicle Control ([2]; 8-week dosing, fibrosis marker): −27.1%
ENPP2 Change versus Vehicle Control ([2]; 8-week dosing, fibrosis marker): −56.3%
LGALS1 Change versus Vehicle Control ([2]; 8-week dosing, fibrosis marker): −64.7%
ANXA2 Change versus Vehicle Control ([2]; 8-week dosing, inflammatory marker): −40.3%
expression of pro-inflammatory gene ANXA2 reduced by ([2]; post-treatment liver, 8 weeks): 40.3%
expression of ACTA2 (αSMA) reduced by [2, 10]: 37%
expression of Col1a1 reduced by [2, 10]: 36.3%
expression of Col3a1 reduced by [2, 10]: 27.1%
expression of LGALS1 (Galectin 1) reduced by [2, 10]: 64.7%
